Test results published in patent US20080201790A1, “Method and product for regulating cell responsiveness to external signals” (priority 1993, published 2008).

Tested on: L929 cells
Assay: Neutral red cell viability assay of L929 cells treated with TNFα and/or bFGF
Type: cell-based, murine
Experimental: In panel A cells were treated with the indicated concentrations of TNFα for 15 hours and were assayed for uptake of neutral red. In panel B cells were untreated (solid bars), treated with 0.5 ng/ml bFGF (dotted bars) or 5.0 ng/ml bFGF (hatched bars) and the indicated concentrations of TNFα for 18 hours. Cell viability was assessed by neutral red assay.
In panel A serum starved L929 cells were untreated or treated for 1 hour at 37° C. with the MEK-1 inhibitor (PD) and then unstimulated or stimulated with bFGF. MAPK activity was measured. In panel B L929 cells were untreated or treated for 1 hour at 37° C. with PD and then were untreated or treated with TNFα alone or in combination with bFGF for 18 hours. Cell viability was assessed by neutral red assay.
Cell lines and culture. L929 cells (ATCC CCL1 were maintained in Dulbecco's modified Eagle's medium with 5% newborn calf serum and 5% bovine calf serum (BCS) supplemented with 100 ug/ml streptomycin and 100 U/ml penicillin. The cells were grown in 10 cm dishes at 37° C. in 7.5% CO2. Cells were made quiescent where indicated by incubation in Dulbecco's modified Eagle's medium and 0.1% bovine serum albumin for 24 h. Recombinant murine TNFα and recombinant human bFGF (147aa) were from R&D Systems, Minneapolis, Minn. Cells were pretreated where indicated with the MEK-1 inhibitor PD#098059 (Parke-Davis Pharmaceutical Corp. Ann Arbor, Mich.) for 1 h at 37° C. Cells were stimulated by incubation with the indicated cytokine or growth factor for various times at 37° C. Stimulation was stopped by rinsing the plates twice with ice cold phosphate buffered saline (PBS) and lysing the cells in the appropriate lysis buffer. Cells were scraped from the plates and nuclei were pelleted for 10 min at 14,000 RPM in a microcentrifuge. JNK assay. JNK activity was measured using a solid state kinase assay in which glutathione S-transferase-c-Jun (1-79) (GST-JUN) cound to glutathione-Sepharose 4B beads was used to affinity purify JNK and then JNK activity was measured in an in vitro kinase assay using the sepharose bound GST-Jun as a substrate (Hibi, M., et al. (1993) Genes & Development 7:2135-2148). Stimulated or unstimulated cells were lysed in 0.5% Nonidet P-40, 20 mM HEPES pH 7.2, 100 mM NaCl, 2 mM dithiothreitol, 1 mM EDTA, 1.0 mM phenylmethylsulfonylfluoride, 1 μg/ml aprotinin and the nuclei pelleted. Lysates were normalized for protein content. JNK was affinity purified from 50-100 μg of cell lysate by the addition of 10 ul of GST-Jun sepharose slurry (2 μg GST-Jun). Binding to GST-Jun efficiently isolates the two major forms of JNK (p45 and p55) and under the conditions used JNK isolation was linear for 10-250 μg of cell lysate. The lysates were rotated at 4° C. for 1-3 h. Beads were washed twice in lysis buffer and then twice in PAN (10 mM PIPES, pH 7.0, 100 mM NaCl, 21 μg/ml aprotinin). Kinase reactions were carried out at 30° C. for 15 min in 20 mM Hepes pH 7.2, 20 mM β-glycerophosphate, 10 mM p-nitrophenyl phosphate, 10 mM MgCl2, 1 mM dithiothreitol, 50 μm sodium vanadate, 10 μCi γ^32P-ATP 4300 Ci/mmole. The kinase reaction was linear from 0-30 min. MAPK Assay MAPK activity was measured exactly as described previously (Gardner, A. M., et al. (1994) Meth. Enzymol. 238:258-270) with the exception that MonoQ FPLC fractionation was replaced by step elution from a DEAE-Sephacel column using 0.5 M NaCl in loading buffer. The eluate was assayed in triplicate using the epidermal growth factor receptor 662-681 peptide (EGFR662-681) as a selective substrate for MAPK activity (Heasley, L. E., et al. (1994) American Journal of Physiology (Renal Fluid Electrolyte Physiol. 36) 267:F366-F373). […]

Substance | time required to induce a similar level of L929 cell death (1 ng/ml TNFα) | L929 cells being apoptotic (10 ng/ml TNFα, 15 hr) | effect on TNFα-mediated cell death (L929 cells) | cell number in the absence of TNFα (bFGF alone)
TNFα | 24 to 48 h | greater than 40% |  | 
bFGF: recombinant human bFGF (147aa), basic fibroblast growth factor |  |  | effective at blocking | did not measurably increase cell number
